Results taken from patent publication EP4603105A1, “PHARMACEUTICAL COMPOSITION CONTAINING CYCLIC COMPOUND HAVING SELECTIVE KRAS INHIBITORY EFFECT AGAINST HRAS AND NRAS” (CHUGAI SEIYAKU KABUSHIKI KAISHA, priority 2022, dated 2024).

What was measured:
[1] = biological target: GDP-bound KRAS wild-type protein (Homo sapiens, UniProt P01116); experiment: Binding to KRAS by surface plasmon resonance (SPR), dissociation constant KD; settings: Single Cycle Kinetics
In short: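 SPR, 30°C: Avi-biotin RAS·GDP captured via Biotin CAPture (~100–300 RU); running buffer HBS pH 7.4, 1 mM DTT, 10 mM MgCl2, 0.01% Tween 20, 10 µM GDP, 4% DMSO. Single-cycle kinetics, 100 µL/min, 75 s injections; 1:1 model → KD.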

[2] = biological target: GDP-bound NRAS wild-type protein (Homo sapiens, UniProt P01111); experiment: Binding to NRAS by surface plasmon resonance (SPR), KD and KD ratio to KRAS; settings: ratio of KD for GDP-bound NRAS wild-type protein to KD for KRAS
GDP-bound NRAS wild-type protein, sequence (P01111 whole entry): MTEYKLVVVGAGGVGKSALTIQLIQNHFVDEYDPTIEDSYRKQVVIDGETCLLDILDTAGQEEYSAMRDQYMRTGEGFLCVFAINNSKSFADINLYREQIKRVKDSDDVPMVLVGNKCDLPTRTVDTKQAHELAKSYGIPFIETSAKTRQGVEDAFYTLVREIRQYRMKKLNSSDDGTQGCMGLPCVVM
In short: (§1)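 Running buffer contained 10 µM GDP and 10 mM MgCl2 to keep RAS in the GDP state, with 4% DMSO at pH 7.4. Compounds were flowed at 100 µL/min in 75 s steps of rising concentration over captured biotin-Avi RAS at 30°C. Sensorgrams were fitted 1:1 for KD.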

[3] = tested on: human lung cancer strain NCI-H441; experiment: NCI-H441 cell proliferation inhibitory activity (CellTiter-Glo, 4 days); type: cell-based; settings: NCI-H441 cells, 4 days, read-out: NCl-H441 IC50
In short: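 Step one: dispense the test compound in serial DMSO dilutions. Step three: add the reagent and measure […].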

HRAS wild-type protein = HRAS wild-type protein (Homo sapiens, UniProt P01112); experiment: Binding to HRAS by surface plasmon resonance (SPR), KD and KD ratio to KRAS; settings: ratio of KD for HRAS wild-type protein to KD for KRAS
HRAS wild-type protein, sequence (P01112 whole entry): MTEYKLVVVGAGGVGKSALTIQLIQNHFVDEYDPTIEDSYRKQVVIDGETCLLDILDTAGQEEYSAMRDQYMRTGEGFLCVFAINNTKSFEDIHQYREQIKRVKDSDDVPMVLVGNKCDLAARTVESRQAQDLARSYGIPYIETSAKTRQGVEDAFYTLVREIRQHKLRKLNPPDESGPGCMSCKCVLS
In short: as §1

GDP-bound KRAS wild-type protein, sequence (P01116 1-188 isoform P01116-2): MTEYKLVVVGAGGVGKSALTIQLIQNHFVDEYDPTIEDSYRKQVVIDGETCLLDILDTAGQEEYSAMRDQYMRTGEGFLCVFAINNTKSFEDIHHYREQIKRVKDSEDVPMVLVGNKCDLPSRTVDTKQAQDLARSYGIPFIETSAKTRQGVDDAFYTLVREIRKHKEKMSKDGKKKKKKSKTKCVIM

| Compound | Kd [1] | IC50 [3] | NRAS /KRAS [2] | HRAS /KRAS (HRAS wild-type protein) |
| --- | --- | --- | --- | --- |
| C#CC[C@H]1C(=O)N[C@@H]([C@@H](C)CC)C(=O)N2CCCC[C@H]2C(=O)N(C)[C@H]2C/C=C\CCN(C2=O)[C@@H](Cc2ccc(C(F)(F)F)cc2)C(=O)N(C)CC(=O)N[C@@H](CCc2cc(F)c(C(F)(F)F)c(F)c2)C(=O)N2C[C@H](OCC)C[C@H]2C(=O)N(C)C2(CCC2)C(=O)N(C)[C@@H](C2CCCC2)C(=O)N(C)[C@H](C(=O)N(C)C)CC(=O)N1C [PP3259] | 1.2 nM | 49.8 nM | A (a compound having 10 or more and less than 20 is denoted as A) | B (a compound having 3 or more and less than 10 is denoted as B) |
| C#CC[C@H]1C(=O)N[C@@H]([C@@H](C)CC)C(=O)N2CCCCC[C@H]2C(=O)N(C)[C@H]2C/C=C\CCN(C2=O)[C@@H](Cc2ccc(C)cc2)C(=O)N(C)CC(=O)N[C@@H](CCc2ccc(C(F)(F)F)c(OC)c2)C(=O)N2C[C@H](OCC)C[C@H]2C(=O)N(C)C2(CCC2)C(=O)N(C)[C@@H](C2CCCC2)C(=O)N(C)[C@H](C(=O)N(C)C)CC(=O)N1C [PP3267] | 5 nM | 196 nM | A (a compound having 10 or more and less than 20 is denoted as A) | B (a compound having 3 or more and less than 10 is denoted as B) |
| CCC[C@H]1C(=O)N[C@@H]([C@@H](C)CC)C(=O)N2CCCC[C@H]2C(=O)N(C)[C@H]2C/C=C\CCN(C2=O)[C@@H](Cc2ccc(C(F)(F)F)cc2)C(=O)N(C)CC(=O)N[C@@H](CCc2ccc(C(F)(F)F)c(OC)c2)C(=O)N2C[C@H](OCC)C[C@H]2C(=O)N(C)C2(CCC2)C(=O)N(C)[C@@H](C2CCCC2)C(=O)N(C)[C@H](C(=O)N(C)C)CC(=O)N1C [PP3270] | 0.43 nM | 13.9 nM | A (a compound having 10 or more and less than 20 is denoted as A) | B (a compound having 3 or more and less than 10 is denoted as B) |
| CCC[C@H]1C(=O)N[C@@H]([C@@H](C)CC)C(=O)N2CCCC[C@H]2C(=O)N(C)[C@H]2C/C=C\CCN(C2=O)[C@@H](Cc2ccc(C(F)(F)F)cc2)C(=O)N(C)CC(=O)N[C@@H](CCc2cc(F)c(C(F)(F)F)c(F)c2)C(=O)N2C[C@H](OCC)C[C@H]2C(=O)N(C)C2(CCC2)C(=O)N(C)[C@@H](C2CCCC2)C(=O)N(C)[C@H](C(=O)N(C)C)CC(=O)N1C [PP3271] | 0.82 nM | 22.7 nM | A (a compound having 10 or more and less than 20 is denoted as A) | B (a compound having 3 or more and less than 10 is denoted as B) |
| CCC[C@H]1C(=O)N[C@@H]([C@@H](C)CC)C(=O)N2CCCC[C@H]2C(=O)N(C)[C@H]2C/C=C\CCN(C2=O)[C@@H](Cc2ccc(C(F)(F)F)cc2)C(=O)N(C)CC(=O)N[C@@H](CCc2ccc(C(F)(F)F)c(Cl)c2)C(=O)N2C[C@H](OCC)C[C@H]2C(=O)N(C)C2(CCC2)C(=O)N(C)[C@@H](C2CCCC2)C(=O)N(C)[C@H](C(=O)N(C)C)CC(=O)N1C [PP3272] | 0.96 nM | 19.4 nM | A (a compound having 10 or more and less than 20 is denoted as A) | B (a compound having 3 or more and less than 10 is denoted as B) |
| CCC[C@H]1C(=O)N[C@@H]([C@@H](C)CC)C(=O)N2CCCC[C@H]2C(=O)N(C)[C@H]2C/C=C\CCN(C2=O)[C@@H](Cc2ccc(C)cc2)C(=O)N(C)CC(=O)N[C@@H](CCc2ccc(C(F)(F)F)c(OC)c2)C(=O)N2C[C@H](OCC)C[C@H]2C(=O)N(C)C2(CCC2)C(=O)N(C)[C@@H](C2CCCC2)C(=O)N(C)[C@H](C(=O)N(C)C)CC(=O)N1C [PP3273] | 0.5 nM | 34 nM | A (a compound having 10 or more and less than 20 is denoted as A) | B (a compound having 3 or more and less than 10 is denoted as B) |
| CCC[C@H]1C(=O)N[C@@H]([C@@H](C)CC)C(=O)N2CCCC[C@H]2C(=O)N(C)[C@H]2C/C=C\CCN(C2=O)[C@@H](Cc2ccc(C)cc2)C(=O)N(C)CC(=O)N[C@@H](CCc2cc(F)c(C(F)(F)F)c(F)c2)C(=O)N2C[C@H](OCC)C[C@H]2C(=O)N(C)C2(CCC2)C(=O)N(C)[C@@H](C2CCCC2)C(=O)N(C)[C@H](C(=O)N(C)C)CC(=O)N1C [PP3274] | 0.81 nM | 25.1 nM | A (a compound having 10 or more and less than 20 is denoted as A) | B (a compound having 3 or more and less than 10 is denoted as B) |
| CCC[C@H]1C(=O)N[C@@H]([C@@H](C)CC)C(=O)N2CCCC[C@H]2C(=O)N(C)[C@H]2C/C=C\CCN(C2=O)[C@@H](Cc2ccc(C)cc2)C(=O)N(C)CC(=O)N[C@@H](CCc2ccc(C(F)(F)F)c(Cl)c2)C(=O)N2C[C@H](OCC)C[C@H]2C(=O)N(C)C2(CCC2)C(=O)N(C)[C@@H](C2CCCC2)C(=O)N(C)[C@H](C(=O)N(C)C)CC(=O)N1C [PP3275] | 1.7 nM | 84.8 nM | B (a compound having 3 or more and less than 10 is denoted as B) | B (a compound having 3 or more and less than 10 is denoted as B) |
| CCC[C@H]1C(=O)N[C@@H]([C@@H](C)CC)C(=O)N2CCCCC[C@H]2C(=O)N(C)[C@H]2C/C=C\CCN(C2=O)[C@@H](Cc2ccc(C(F)(F)F)cc2)C(=O)N(C)CC(=O)N[C@@H](CCc2ccc(C(F)(F)F)c(OC)c2)C(=O)N2C[C@H](OCC)C[C@H]2C(=O)N(C)C2(CCC2)C(=O)N(C)[C@@H](C2CCCC2)C(=O)N(C)[C@H](C(=O)N(C)C)CC(=O)N1C [PP3276] | 4 nM | 105 nM | A (a compound having 10 or more and less than 20 is denoted as A) | A (a compound having 10 or more and less than 20 is denoted as A) |
| CCC[C@H]1C(=O)N[C@@H]([C@@H](C)CC)C(=O)N2CCCCC[C@H]2C(=O)N(C)[C@H]2C/C=C\CCN(C2=O)[C@@H](Cc2ccc(C)cc2)C(=O)N(C)CC(=O)N[C@@H](CCc2ccc(C(F)(F)F)c(OC)c2)C(=O)N2C[C@H](OCC)C[C@H]2C(=O)N(C)C2(CCC2)C(=O)N(C)[C@@H](C2CCCC2)C(=O)N(C)[C@H](C(=O)N(C)C)CC(=O)N1C [PP3279] | 4.5 nM | 144 nM | A (a compound having 10 or more and less than 20 is denoted as A) | B (a compound having 3 or more and less than 10 is denoted as B) |

Stronger by Kd [1], values ahead:

| Kd [1] | IC50 [3] | Compound | NRAS /KRAS [2] | HRAS /KRAS (HRAS wild-type protein) |
| --- | --- | --- | --- | --- |
| 0.078 nM | 4.2 nM | C#CC[C@H]1C(=O)N[C@@H]([C@@H](C)CC)C(=O)N2CCC[C@H]2C(=O)N(C)[C@H]2C/C=C\CCN(C2=O)[C@@H](Cc2ccc(C)cc2)C(=O)N(C)CC(=O)N[C@@H](CCc2cc(F)c(C(F)(F)F)c(F)c2)C(=O)N2C[C@H](OCC)C[C@H]2C(=O)N(C)C2(CCC2)C(=O)N(C)[C@@H](C2CCCC2)C(=O)N(C)[C@H](C(=O)N(C)C)CC(=O)N1C [PP3256] | A (a compound having 10 or more and less than 20 is denoted as A) | A (a compound having 10 or more and less than 20 is denoted as A) |
| 0.1 nM | 2.2 nM | C#CC[C@H]1C(=O)N[C@@H]([C@@H](C)CC)C(=O)N2CCC[C@H]2C(=O)N(C)[C@H]2C/C=C\CCN(C2=O)[C@@H](Cc2ccc(C)cc2)C(=O)N(C)CC(=O)N[C@@H](CCc2ccc(C(F)(F)F)c(Cl)c2)C(=O)N2C[C@H](OCC)C[C@H]2C(=O)N(C)C2(CCC2)C(=O)N(C)[C@@H](C2CCCC2)C(=O)N(C)[C@H](C(=O)N(C)C)CC(=O)N1C [PP3257] | A (a compound having 10 or more and less than 20 is denoted as A) | B (a compound having 3 or more and less than 10 is denoted as B) |
| 0.2 nM | 8.3 nM | CCC[C@H]1C(=O)N[C@@H]([C@@H](C)CC)C(=O)N(C2CC2)CC(=O)N(C)[C@H]2C/C=C\CCN(C2=O)[C@@H](Cc2ccc(C(F)(F)F)cc2)C(=O)N(C)CC(=O)N[C@@H](CCc2cc(F)c(C(F)(F)F)c(F)c2)C(=O)N2CC[C@H](OC)[C@H]2C(=O)N(C)C2(CCC2)C(=O)N(C)[C@@H](C2CCCC2)C(=O)N(C)[C@H](C(=O)N(C)C)CC(=O)N1C [PP3282] | A (a compound having 10 or more and less than 20 is denoted as A) | A (a compound having 10 or more and less than 20 is denoted as A) |
| 0.26 nM | 7.5 nM | CCC[C@H]1C(=O)N[C@@H]([C@@H](C)CC)C(=O)N2CCC[C@H]2C(=O)N(C)[C@H]2C/C=C\CCN(C2=O)[C@@H](Cc2ccc(C(F)(F)F)cc2)C(=O)N(C)CC(=O)N[C@@H](CCc2cc(F)c(C(F)(F)F)c(F)c2)C(=O)N2CC[C@H](OC)[C@H]2C(=O)N(C)C2(CCC2)C(=O)N(C)[C@@H](C2CCCC2)C(=O)N(C)[C@H](C(=O)N(C)C)CC(=O)N1C [PP3283] | A (a compound having 10 or more and less than 20 is denoted as A) | A (a compound having 10 or more and less than 20 is denoted as A) |
| 0.067 nM | 5 nM | CCC[C@H]1C(=O)N[C@@H]([C@@H](C)CC)C(=O)N(C)CC(=O)N(C)[C@H]2C/C=C\CCN(C2=O)[C@@H](Cc2ccc(C(F)(F)F)cc2)C(=O)N(C)CC(=O)N[C@@H](CCc2cc(F)c(C(F)(F)F)c(F)c2)C(=O)N2CC[C@H](OC)[C@H]2C(=O)N(C)C2(CCC2)C(=O)N(C)[C@@H](C2CCCC2)C(=O)N(C)[C@H](C(=O)N(C)C)CC(=O)N1C [PP3284] | A (a compound having 10 or more and less than 20 is denoted as A) | A (a compound having 10 or more and less than 20 is denoted as A) |
